Source: patent US6538037B2, “Methods for preparation and use of 1α,24(S)-dihydroxyvitamin D2” (Bone Care International, Inc., priority 1991, dated 2003)
Where two headings read alike, the source gives them in different places.

How the values were obtained:
[1] = tested on: vitamin D receptor positive tumor; experiment: General treatment of cancers, open-label study; format: in vivo, human; conditions: after 18 months
From the text: Patients with a known vitamin D receptor positive tumor (e.g., adenocarcinoma of the prostate, breast, lung, colon or pancreas, or transitional cell carcinoma of the bladder, or melanoma) participate in an open-label study of 1α,24(S)-(OH)2D2. Patients are placed on a reduced calcium diet prior to treatment, to help minimize intestinal absorption and allow ever higher doses of 1α,24(S)-dihydroxyvitamin D2. This reduced calcium diet may be continued for the duration of treatment, and for one week after the last dose of the 1α,24(S)-dihydroxyvitamin D2. The diet ideally restricts daily calcium intake to 400-500 mg. Patients also discontinue use of any vitamin supplements or vitamin D replacement therapies. Each patient is also asked to drink 4-6 cups of fluid more than usual intake to assure adequate oral hydration.
Each subject is monitored at regular intervals for: (1) hypercalcemia, hyperphosphatemia, hypercalciuria, hyperphosphaturia and other toxicity; (2) evidence of changes in the progression of metastatic disease; and (3) compliance with the prescribed test drug dosage.
The dosing regimen is typically on a daily dose basis of 10 μg or 20 μg per day to about 100 μg/day for 24 months. Alternatively, a non-daily dosing regimen can be used, e.g., 40 μg given every other day, 100 μg given once a week. […]

[2] = Blood metabolite levels in osteoporotic women administered 1α-OH-D2; format: in vivo, human
Procedure: An increase in the production of 1α,24(S)-(OH)2D2 relative to 1α,25-(OH)2D2 has also been observed by the present inventors in human females who received 1α-OH-D2 as part of an investigation of that drug for the treatment of osteoporosis. Following either a single dose of 2 μg of 1α-OH-D2 or daily doses of 8 μg/day for one week, blood was collected and analyzed for the metabolites 1α,24(S)-(OH)2D2 and 1α,25-(OH)2D2. Lipid was extracted from the blood, and the metabolites were purified by HPLC using standard methods and quantified with the radioreceptor assay produced by Incstar (Stillwater, Minn.). One day after a single 2 μg dose, the level of 1α,24(S)-(OH)2D2 was undetectable with the 1α,25-(OH)2D2 level being approximately 11 pg/ml. In contrast, one day following the last dose of 8 μg, the level of 1α,24(S)-(OH)2D2 averaged 9 pg/mL with the 1α,25-(OH)2D2 level averaging 30 pg/mL.

[3] = Preventive treatment of bone mass loss in postmenopausal osteoporotic women; format: in vivo, human; conditions: at or above 1.0 μg/day, 24 to 36 months
Procedure: A clinical study is conducted with postmenopausal osteoporotic out-patients having ages between 55 and 75 years. The study involves up to 120 patients randomly divided into three treatment groups and continues for 24 to 36 months. Two of the treatment groups receive constant dosages of 1α,24(S)-dihydroxyvitamin D2 (u.i.d.; two different dose levels at or above 1.0 μg/day) and the other group receives a matching placebo. All patients maintain a normal intake of dietary calcium (500 to 800 mg/day) and refrain from using calcium supplements. Efficacy is evaluated by pre-and post-treatment comparisons of the patient groups with regard to (a) total body calcium retention, and (b) radial and spinal bone mineral density as determined by dual-photon absorptiometry (DPA) or dual-energy x-ray absorptiometry (DEXA). Safety is evaluated by comparisons of urinary hydroxyproline excretion, serum and urine calcium levels, creatinine clearance, blood urea nitrogen, and other routine determinations.

[4] = target: T1, vitamin D serum binding protein (DBP) (Rattus norvegicus, UniProt P04276); experiment: Affinity for vitamin D serum binding protein using vitamin D deficient rat serum
T1 construct: assessed using vitamin D deficient rat serum; from tissue; host or cells: vitamin D deficient rat serum
T1 sequence (P04276 17-476): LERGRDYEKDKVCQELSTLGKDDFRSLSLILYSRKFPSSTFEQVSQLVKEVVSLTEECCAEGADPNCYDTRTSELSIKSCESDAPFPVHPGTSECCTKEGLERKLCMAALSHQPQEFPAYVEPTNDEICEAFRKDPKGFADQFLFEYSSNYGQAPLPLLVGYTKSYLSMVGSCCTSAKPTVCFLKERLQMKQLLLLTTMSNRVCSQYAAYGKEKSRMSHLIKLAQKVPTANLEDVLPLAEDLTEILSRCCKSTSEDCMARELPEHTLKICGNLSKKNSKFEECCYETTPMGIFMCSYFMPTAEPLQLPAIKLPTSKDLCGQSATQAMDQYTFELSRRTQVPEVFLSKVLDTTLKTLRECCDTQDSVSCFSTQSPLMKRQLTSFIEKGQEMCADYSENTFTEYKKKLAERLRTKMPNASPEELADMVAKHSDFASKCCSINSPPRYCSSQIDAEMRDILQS
From the text: In addition, the weak binding by the DBP was indicative of more rapid clearance, allowing for low toxicity.

[5] = tested on: human cancer cell lines BCA-1 or ZR-75-1 (breast) and COL-1 (colon); experiment: Antiproliferative activity in human cancer cell lines (thymidine incorporation); format: cell-based; conditions: dose-response studies
Procedure: Dose-response studies are conducted with 1α,24(S)-(OH)2D2 in a battery of human cancer cell lines. These cell lines include, but are not limited to, the following: BCA-1 or ZR-75-1 (breast) and COL-1 (colon), as described by Shieh, H. L. et al. Chem. Biol. Interact., vol. 81, pp. 35-55 (1982). In this study, appropriate solvents are used as negative controls.

[6] = Hypocalcemia and metabolic bone disease in chronic hemodialysis patients; format: in vivo, human; conditions: greater than 3.0 μg/day
Procedure: A twelve-month, double-blind, placebo-controlled clinical trial is conducted with thirty men and women with renal disease who are undergoing chronic hemodialysis. All patients enter an 8-week control period during which time they receive a maintenance dose of Vitamin D3 (400 IU/day). After this control period, the patients are randomized into two treatment groups: one group receives a constant dosage of 1α,24(S)-dihydroxyvitamin D2 (u.i.d.; a dosage greater than 3.0 μg/day) and the other group receives a matching placebo. Both treatment groups receive a maintenance dosage of Vitamin D3, maintain a normal intake of dietary calcium, and refrain from using calcium supplements. Efficacy is evaluated by pre- and post-treatment comparisons of the two patient groups with regard to (a) direct measurements of intestinal calcium absorption, (b) total body calcium retention, (c) radial and spinal bone mineral density, or (d) determinations of serum calcium. Safety is evaluated by regular monitoring of serum calcium.

## C=C1/C(=C\C=C2/CCC[C@]3(C)[C@@H]([C@H](C)/C=C/[C@@](C)(O)C(C)C)CC[C@@H]23)C[C@@H](O)C[C@@H]1O [1α,24(S)-(OH)2D2, 1α,24(S)-dihydroxyvitamin D2]
[1]; higher dosage
  progress of metastatic disease (CAT scans, X-rays, bone scans): stable disease and partial or complete remission in many patients
[1]; lower dosage
  progress of metastatic disease (CAT scans, X-rays, bone scans): partial remission in many patients
[2]; one day after a single 2 μg dose of 1α-OH-D2
  blood level of metabolite: undetectable
[2]; one day following the last dose of 8 μg/day 1α-OH-D2 for one week
  blood level of metabolite (average): 9 pg/mL
[3]
  incidence of hypercalcemia or hypercalciuria: insignificant incidence of hypercalcemia or hypercalciuria
  total body calcium, radial and spinal bone densities relative to placebo: significantly higher total body calcium, and radial and spinal bone densities
[4]
  binding affinity for the vitamin D serum binding protein (in words): relatively poor binding affinity
[4]; listed as 1α,24(S)-dihydroxyvitamin D2
  binding affinity for the vitamin D serum binding protein (in words): more weakly than does 1,25-(OH)2D3
[4]; vitamin D deficient rat serum
  binding of DBP relative to 25-OH-D3: at least 1000 times weaker
[5]
  antiproliferative activity, inhibition of thymidine incorporation: potent (and reversible) antiproliferative activity
[6]; double-isotope technique
  intestinal calcium absorption: significantly increases intestinal calcium absorption
[6]; twelve months
  incidence of hypercalcemia: insignificant incidence of hypercalcemia
  serum calcium levels: normalized serum calcium levels
  total body calcium and radial and spinal bone densities relative to baseline: stable values for total body calcium, and stable radial and spinal bone densities
